Publication PMC2770256 (Journal of molecular biology, 2009)

Target: Ypt1p (His6-Ypt1p 1-180) (Saccharomyces cerevisiae, UniProt P01123)
Assay: stopped-flow fluorescence
Format: binding
Settings: pH 8.0, 25 °C, 5 mM MgCl2; labelled compound; nucleotide-free Ypt1p; association rate constant

Chain of Ypt1p (His6-Ypt1p 1-180) (P01123 1-180): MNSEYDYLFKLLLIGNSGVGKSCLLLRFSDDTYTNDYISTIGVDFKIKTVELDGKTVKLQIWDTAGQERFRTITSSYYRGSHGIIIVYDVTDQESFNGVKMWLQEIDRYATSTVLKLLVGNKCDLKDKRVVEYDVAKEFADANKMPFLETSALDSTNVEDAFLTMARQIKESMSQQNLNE

CNc1ccccc1C(=O)O[C@H]1C[C@H](n2cnc3c(=O)[nH]c(N)nc32)O[C@@H]1COP(=O)(O)OP(=O)(O)O [mant-dGDP]
Value: 0.096 (±0.004) μM^-1 s^-1
